We go through two molecules from ChEMBL document CHEMBL2074261, “Transcellular transport of organic anions across a double-transfected Madin-Darby canine kidney II cell monolayer expressing both human organic anion-transporting polypeptide (OATP2/SLC21A6) and Multidrug resistance-associated protein 2 (MRP2/ABCC2)” (J Biol Chem, 2002).

The target of the data set is Canalicular multispecific organic anion transporter 1/Solute carrier organic anion transporter family member 1B1 (Homo sapiens, UniProt Q92887+Q9Y6L6). As to the kind of experiment: TP_TRANSPORTER: transepithelial transport (basal to apical) in MRP2- and OATP-C-expressing MDCKII cells. The format is functional, cell-based. To be noted: dog, mdck-ii.

`C[C@H](CCC(=O)NCCS(=O)(=O)O)C1CC[C@H]2[C@@H]3CC[C@@H]4C[C@H](OS(=O)(=O)O)CC[C@]4(C)[C@H]3CC[C@]12C` (some centres not stated): the Activity entry is “substrate [+]”. The value for `CC[C@H](C)C(=O)O[C@H]1C[C@H](O)C=C2C=C[C@H](C)[C@H](CC[C@@H](O)C[C@@H](O)CC(=O)O)[C@H]21` [PRAVASTATIN] was “substrate [+]”.
